Measurements taken from ChEMBL document CHEMBL3885881, “DrugMatrix”.

Organism: Rattus norvegicus
Test: DrugMatrix - Regimen: Daily Repeat
Format: toxicity, organism-based, Sprague-Dawley
Design: regimen Daily Repeat, gender Male, age 6-8 weeks
Settings: in vivo, po, route oral GAVAGE, vehicle 100 % WATER; for ABSOLUTE BASOPHIL / ABSOLUTE EOSINOPHIL / ABSOLUTE LYMPHOCYTE / ABSOLUTE MONOCYTE / ABSOLUTE SEGMENTED NEUTROPHIL / BASOPHIL / EOSINOPHIL / ERYTHROCYTE COUNT / HEMATOCRIT / HEMOGLOBIN / LEUKOCYTE COUNT / LYMPHOCYTE / MEAN CORPUSCULAR HEMOGLOBIN / MEAN CORPUSCULAR HEMOGLOBIN CONCENTRATION / MEAN CORPUSCULAR VOLUME / MONOCYTE / NEUTROPHIL / NUCLEATED RED BLOOD CELLS / PLATELET COUNT: tissue Blood; for ALANINE AMINOTRANSFERASE / ALBUMIN / ALKALINE PHOSPHATASE / ASPARTATE AMINOTRANSFERASE / BLOOD UREA NITROGEN / CARBON DIOXIDE / CHLORIDE / CHOLESTEROL / CREATINE PHOSPHOKINASE / CREATININE / GLUCOSE / LACTATE DEHYDROGENASE / LIPASE / PHOSPHORUS / POTASSIUM / SODIUM / TOTAL BILIRUBIN / TOTAL PROTEIN / URIC ACID: tissue Plasma
[1] = 10 mg/kg, 120 h, dose level Low, time 5 day
[2] = 280 mg/kg, 72 h, dose level High, time 3 day
[3] = 280 mg/kg, 120 h, dose level High, time 5 day

**Q.** What does the source list for `NNc1nncc2ccccc12` [HYDRALAZINE]?
**A.** ABSOLUTE BASOPHIL [1]: 0 CELLS/uL; ABSOLUTE EOSINOPHIL [1]: 0 CELLS/uL; ABSOLUTE LYMPHOCYTE [1]: 12743.33 CELLS/uL; ABSOLUTE MONOCYTE [1]: 327.33 CELLS/uL; ABSOLUTE SEGMENTED NEUTROPHIL [1]: 1062.67 CELLS/uL; BASOPHIL [1]: 0%; EOSINOPHIL [1]: 0%; ERYTHROCYTE COUNT [1]: 5.27 x10E6/uL; HEMATOCRIT [1]: 32.27%; HEMOGLOBIN [1]: 13.07 G/DL; LEUKOCYTE COUNT [1]: 14.13 x10E3/uL; LYMPHOCYTE [1]: 90%; MEAN CORPUSCULAR HEMOGLOBIN [1]: 24.8 pg; MEAN CORPUSCULAR HEMOGLOBIN CONCENTRATION [1]: 40.53 G/DL; MEAN CORPUSCULAR VOLUME [1]: 61.17 fL; MONOCYTE [1]: 2.33%; NEUTROPHIL [1]: 7.67%; NUCLEATED RED BLOOD CELLS [1]: 0 /100WBC; PLATELET COUNT [1]: 1239 x10E3/uL; ALANINE AMINOTRANSFERASE [1]: 50 u/L; ALBUMIN [1]: 4.2 G/DL; ALKALINE PHOSPHATASE [1]: 452.67 u/L; ASPARTATE AMINOTRANSFERASE [1]: 79.67 u/L; BLOOD UREA NITROGEN [1]: 16.33 mg/dL; CARBON DIOXIDE [1]: 29.67 mmol/L; CHLORIDE [1]: 100.33 MEQ/L; CHOLESTEROL [1]: 68 mg/dL; CREATINE PHOSPHOKINASE [1]: 219.67 u/L; CREATININE [1]: 0.15 mg/dL; GLUCOSE [1]: 131.33 mg/dL; LACTATE DEHYDROGENASE [1]: 184 u/L; LIPASE [1]: 11 u/L; PHOSPHORUS [1]: 10.8 mg/dL; POTASSIUM [1]: 5.91 MEQ/L; SODIUM [1]: 142.03 MEQ/L; TOTAL BILIRUBIN [1]: 0.13 mg/dL; TOTAL PROTEIN [1]: 5.73 G/DL; URIC ACID [1]: 1.13 mg/dL; ABSOLUTE BASOPHIL [2]: 0 CELLS/uL; ABSOLUTE EOSINOPHIL [2]: 0 CELLS/uL; ABSOLUTE LYMPHOCYTE [2]: 9108 CELLS/uL; ABSOLUTE MONOCYTE [2]: 0 CELLS/uL; ABSOLUTE SEGMENTED NEUTROPHIL [2]: 792 CELLS/uL; BASOPHIL [2]: 0%; EOSINOPHIL [2]: 0%; ERYTHROCYTE COUNT [2]: 5.62 x10E6/uL; HEMATOCRIT [2]: 33.4%; HEMOGLOBIN [2]: 13 G/DL; LEUKOCYTE COUNT [2]: 9.9 x10E3/uL; LYMPHOCYTE [2]: 92%; MEAN CORPUSCULAR HEMOGLOBIN [2]: 23.1 pg; MEAN CORPUSCULAR HEMOGLOBIN CONCENTRATION [2]: 38.9 G/DL; MEAN CORPUSCULAR VOLUME [2]: 59.4 fL; MONOCYTE [2]: 0%; NEUTROPHIL [2]: 8%; NUCLEATED RED BLOOD CELLS [2]: 0 /100WBC; PLATELET COUNT [2]: 1418 x10E3/uL; ALANINE AMINOTRANSFERASE [2]: 36 u/L; ALBUMIN [2]: 4.1 G/DL; ALKALINE PHOSPHATASE [2]: 257 u/L; ASPARTATE AMINOTRANSFERASE [2]: 59 u/L; BLOOD UREA NITROGEN [2]: 21 mg/dL; CARBON DIOXIDE [2]: 32 mmol/L; CHLORIDE [2]: 99 MEQ/L; CHOLESTEROL [2]: 74 mg/dL; CREATINE PHOSPHOKINASE [2]: 207 u/L; CREATININE [2]: 0.14 mg/dL; GLUCOSE [2]: 142 mg/dL; LACTATE DEHYDROGENASE [2]: 151 u/L; LIPASE [2]: 10 u/L; PHOSPHORUS [2]: 10.8 mg/dL; POTASSIUM [2]: 5.22 MEQ/L; SODIUM [2]: 139.9 MEQ/L; TOTAL BILIRUBIN [2]: 0.1 mg/dL; TOTAL PROTEIN [2]: 5.4 G/DL; URIC ACID [2]: 1.3 mg/dL; ABSOLUTE BASOPHIL [3]: 0 CELLS/uL; ABSOLUTE EOSINOPHIL [3]: 0 CELLS/uL; ABSOLUTE LYMPHOCYTE [3]: 8493.67 CELLS/uL; ABSOLUTE MONOCYTE [3]: 293 CELLS/uL; ABSOLUTE SEGMENTED NEUTROPHIL [3]: 980 CELLS/uL; BASOPHIL [3]: 0%; EOSINOPHIL [3]: 0%; ERYTHROCYTE COUNT [3]: 5.59 x10E6/uL; HEMATOCRIT [3]: 33.5%; HEMOGLOBIN [3]: 13.07 G/DL; LEUKOCYTE COUNT [3]: 9.77 x10E3/uL; LYMPHOCYTE [3]: 87.67%; MEAN CORPUSCULAR HEMOGLOBIN [3]: 23.37 pg; MEAN CORPUSCULAR HEMOGLOBIN CONCENTRATION [3]: 39 G/DL; MEAN CORPUSCULAR VOLUME [3]: 59.97 fL; MONOCYTE [3]: 3%; NEUTROPHIL [3]: 9.33%; NUCLEATED RED BLOOD CELLS [3]: 0 /100WBC; PLATELET COUNT [3]: 1213 x10E3/uL; ALANINE AMINOTRANSFERASE [3]: 40.33 u/L; ALBUMIN [3]: 4.2 G/DL; ALKALINE PHOSPHATASE [3]: 309.67 u/L; ASPARTATE AMINOTRANSFERASE [3]: 58.67 u/L; BLOOD UREA NITROGEN [3]: 18.33 mg/dL; CARBON DIOXIDE [3]: 25.67 mmol/L; CHLORIDE [3]: 101 MEQ/L; CHOLESTEROL [3]: 65.33 mg/dL; CREATINE PHOSPHOKINASE [3]: 302.33 u/L; CREATININE [3]: 0.16 mg/dL; GLUCOSE [3]: 143 mg/dL; LACTATE DEHYDROGENASE [3]: 125 u/L; LIPASE [3]: 11.33 u/L; PHOSPHORUS [3]: 10.47 mg/dL; POTASSIUM [3]: 5.72 MEQ/L; SODIUM [3]: 140.6 MEQ/L; TOTAL BILIRUBIN [3]: 0.17 mg/dL; TOTAL PROTEIN [3]: 5.47 G/DL; URIC ACID [3]: 1.43 mg/dL
